ChEMBL document CHEMBL1201862, “PubChem BioAssay data set” (2004)
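In this assay, cells in 96-well plates receive the compound at five concentrations for 48 hours. Endpoints are linearly interpolated between the surrounding concentrations. At the GI50, growth is halved.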 Activity calls are given as the source filed them. Rule as the data show it: active = GI50 up to about 1.1 µM and inactive = higher.

Assays:
Assay in all cases: growth of human tumour cells (NCI), 48 h
[1] = system: SW-620
[2] = system: HCT-116
[3] = system: PC-3
[4] = system: T47D
[5] = system: HT-29
[6] = system: 786-0
[7] = system: SNB-75
[8] = system: SK-MEL-2
[9] = system: UO-31
[10] = system: SF-268
[11] = system: A549
[12] = system: MDA-N
[13] = system: OVCAR-4
[14] = system: CCRF-CEM
[15] = system: MDA-MB-435
[16] = system: OVCAR-3
[17] = system: NCI-H460
[18] = system: RXF 393
[19] = system: MCF7
[20] = system: BT-549
[21] = system: KM12
[22] = system: HOP-62
[23] = system: SF-539
[24] = system: NCI-H226
[25] = system: M14
[26] = system: Hs-578T
[27] = system: SNB-19
[28] = system: HCT-15
[29] = system: SK-MEL-5
[30] = system: SK-OV-3
[31] = system: SN12C
[32] = system: MDA-MB-231
[33] = system: NCI/ADR-RES
[34] = system: NCI-H23
[35] = system: EKVX
[36] = system: DU-145
[37] = system: CAKI-1
[38] = system: SF-295
[39] = system: A498
[40] = system: HOP-92
[41] = system: K562
[42] = system: HL-60
[43] = system: IGROV-1
[44] = system: COLO 205
[45] = system: U-251
[46] = system: UACC-257
[47] = system: RPMI-8226
[48] = system: OVCAR-5
[49] = system: OVCAR-8
[50] = system: Malme-3M
[51] = system: SK-MEL-28
[52] = system: UACC-62

Measured: GI50

Cc1ccc(S(=O)(=O)c2c(O)c3ccccc3n(C)c2=O)cc1
inactive: [1] > 100 µM | [2] > 100 µM | [3] > 100 µM | [4] > 100 µM | [5] > 100 µM | [6] > 100 µM | [7] > 100 µM | [8] > 100 µM | [9] > 100 µM | [10] > 100 µM | [11] > 100 µM | [12] > 100 µM | [13] > 100 µM | [14] > 100 µM | [15] > 100 µM | [16] > 100 µM | [17] > 100 µM | [18] > 100 µM | [19] > 100 µM | [20] > 100 µM | [21] > 100 µM | [22] > 100 µM | [23] > 100 µM | [24] > 100 µM | [25] > 100 µM | [26] > 100 µM | [27] > 100 µM | [29] > 100 µM | [30] > 100 µM | [31] > 100 µM | [32] > 100 µM | [33] > 100 µM | [34] > 100 µM | [35] > 100 µM | [36] > 100 µM | [37] > 100 µM | [38] > 100 µM | [39] > 100 µM | [40] > 100 µM | [41] > 100 µM | [42] > 100 µM | [43] > 100 µM | [44] > 100 µM | [45] > 100 µM | [46] > 100 µM | [47] > 100 µM | [48] > 100 µM | [49] > 100 µM | [50] > 100 µM | [51] > 100 µM | [52] > 100 µM
> 100 µM: [28]
